Paper PMC10943337 (Heliyon, 2024)

Biological target: α-glucosidase (EC3.2.1.20)
Experiment: p-nitrophenyl-d-glucopyranoside hydrolysis, absorbance at […] nm, pH […] °C
Type: biochemical, Saccharomyces cerevisiae
Details: read-out: IC50 μM

COc1c(-c2ccc(O)c(O)c2)oc2c(O)c(O)ccc2c1=O [compound 1, 2-(3,4-dihydroxyphenyl)-7,8-dihydroxy-3-methoxy-4H-chromen-4-one]
IC50: 45.9 ± 1.98 µM
